Consider six molecules from PMC2674222 (Biochemistry, 2009).

In data set [1] the target is T1, F159W-Leuko-PNP (Homo sapiens, UniProt P00491, F159W/W16Y/W178Y/W94Y).
T1 sequence (P00491 1-289 W16Y/W94Y/F159W/W178Y): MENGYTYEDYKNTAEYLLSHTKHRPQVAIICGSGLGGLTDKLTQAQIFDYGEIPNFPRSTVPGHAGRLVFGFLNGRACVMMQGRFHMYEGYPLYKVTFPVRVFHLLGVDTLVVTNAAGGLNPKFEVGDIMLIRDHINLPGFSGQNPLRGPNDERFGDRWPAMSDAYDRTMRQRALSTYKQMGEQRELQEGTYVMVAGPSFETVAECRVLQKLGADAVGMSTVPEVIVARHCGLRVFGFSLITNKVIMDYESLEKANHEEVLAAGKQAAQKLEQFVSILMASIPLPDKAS
Conditions: relative to native and Leuko-PNP (Table 2).

For data set [2], the target named is Native PNP. Conditions: read-out: Ki* (slow-onset tight binding constant); 50 mM KH2PO4, pH 7.4, 25 °C; cited from earlier work.
Data set [3] deals with Leuko-PNP. Conditions: read-out: Ki* (slow-onset tight binding constant); 50 mM KH2PO4, pH 7.4, 25 °C; cited from earlier work.
Data set [4] has as its system Native PNP. As to conditions: inosine as substrate; 50 mM KH2PO4, pH 7.4, 25 °C; cited from earlier work.
Data set [5] has as its target T1, F159W-Leuko-PNP. Briefly: Fluorometric titration of hypoxanthine-free enzyme with ligands. As to conditions: for Kd: pH 7.4, 25 °C. Format: binding.
Data set [6] concerns Leuko-PNP. Conditions: inosine as substrate; 50 mM KH2PO4, pH 7.4, 25 °C; cited from earlier work.
The target of data set [7] is T1, F159W-Leuko-PNP. Briefly: Steady state kinetics, xanthine oxidase coupled assay with inosine as substrate. Type of data set: biochemical.
Data set [8] concerns Leuko-PNP-PO4. Conditions: stopped-flow fluorometry; cited from earlier work.
Data set [9] relates to Leuko-PNP-PO4. As to conditions: T-jump relaxation kinetics; cited from earlier work.
Data set [10] deals with T2, F159W-Leuko-PNP-PO4 (Homo sapiens, UniProt P00491, F159W/W16Y/W178Y/W94Y). Briefly: biochemical.
The target of data set [11] is T2, F159W-Leuko-PNP-PO4. As to conditions: F159W-Leuko-PNP-Hx-PO4 system, 25 °C.
Substrate in data set [12]: OC[C@H]1O[C@@H](n2cnc3c(O)ncnc32)[C@H](O)[C@@H]1O
Briefly: Steady state kinetics, xanthine oxidase coupled assay with inosine as substrate. Type of data set: biochemical, human. Conditions: other: inosine as substrate, 50 mM KH2PO4, pH 7.4, 25 °C.

Where two headings read alike, the source gives them in different places.

A word on the Ki: it is the equilibrium dissociation constant of an inhibitor or competing ligand from its target. “4'-deaza-1'-aza-2'-deoxy-1'-(9-methylene)-Immucillin-H [DADMe-ImmH]”: the “reduction of binding affinity to F159W-Leuko-PNP” value at F159W-Leuko-PNP [1] is recorded as approximately 10 fold. For the same molecule, the inhibitory constant (Ki) at Native PNP [2] is 0.0085 ± 0.0003 nM; at Leuko-PNP [3], 0.012 ± 0.003 nM.
For orientation: Km means the concentration of substrate that gives half-maximal velocity. One may read the kcat as the maximal rate divided by the concentration of active sites. In the case of `O=c1[nH]cnc2c1ncn2[C@@H]1O[C@H](CO)[C@@H](O)[C@H]1O` [Inosine, inosine], in the data set on Native PNP [4], the Km is 71 ± 8 µM and the catalytic constant (kcat) is 44 ± 2 s⁻¹. Moreover, the “effect on fluorescence emission spectrum of the enzyme” value on F159W-Leuko-PNP [5] (up to ∼100 μM, absence or presence of inorganic sulfate (up to 3 mM)) is given as “does not alter the fluorescence emission spectrum”. For the same molecule, in the data set with Leuko-PNP [6], the Km was 50 ± 3 µM and the kcat is 36 ± 1 s⁻¹. On F159W-Leuko-PNP [7], the “Km altered, F159W-Leuko-PNP vs native and Trp-free enzymes” value is on record as approximately 7 fold; the “kcat altered, F159W-Leuko-PNP vs native and Trp-free enzymes” value is given as approximately 2 fold; the “overall catalytic efficiency reduced relative to native- and Leuko-PNPs” value is on record as approximately 14 fold.
What is called koff is the rate constant with which the complex falls apart. Usually kon stands for the rate constant with which the complex forms. Take `Nc1nc2nc[nH]c2c(=O)[nH]1` [guanine]: in the data set on Leuko-PNP-PO4 [8], the off-rate constant (koff) is 86 ± 8 s⁻¹ and the kon is reported as 2.7 ± 0.1 × 10^7 M^−1s^−1. In addition, in the data set on Leuko-PNP-PO4 [9], the koff is 142 ± 36 s⁻¹ and the on-rate (kon) is recorded as 3.6 ± 0.2 × 10^7 M^−1s^−1.
In general, Kd refers to a measure of binding affinity in units of concentration. As to `O=c1[nH]cnc2nc[nH]c12` [hypoxanthine], at F159W-Leuko-PNP-PO4 [10] (read-out: calculated dissociation rate (koff)), the koff was 178 ± 8 s⁻¹. Moreover, the kon on F159W-Leuko-PNP-PO4 [10] (read-out: rate of association (kon)) came out at 1.2e+07 M⁻¹ s⁻¹. The dissociation constant (Kd) at F159W-Leuko-PNP [5] (absence of phosphate, 20 mM Tris-Cl) worked out at 3300 ± 200 nM; on F159W-Leuko-PNP [5] (presence of phosphate (50 mM KH2PO4)) it was 16000 ± 2000 nM. The “decrease in fluorescence intensity upon titration” value at F159W-Leuko-PNP [5] (absence or presence of phosphate (50 mM KH2PO4), λex 295 nm) worked out at 3 fold. In addition, the k1 result at F159W-Leuko-PNP-PO4 [11] is reported as “(1.2 ± 0.1) × 10^7 M^−1s^−1”. Also, the “k−1” value at F159W-Leuko-PNP-PO4 [11] is 178 ± 8 s⁻¹.
Regarding Immucillin-H [ImmH], the “reduction of binding affinity to F159W-Leuko-PNP” value at F159W-Leuko-PNP [1] is recorded as approximately 20 fold. The Ki on Native PNP [2] was 0.088 ± 0.003 nM; at Leuko-PNP [3], 0.134 ± 0.012 nM.

B1: F159W-Leuko-PNP (Homo sapiens; F159W/W16Y/W178Y/W94Y) (protein)
chain: T1 sequence (P00491 1-289 W16Y/W94Y/F159W/W178Y)
A word on the kcat/Km: it is the turnover number divided by the Michaelis constant. Consider B1, for which, in data set [12], the Michaelis constant (Km) was 422 ± 30 µM, the turnover number (kcat) is 22 ± 1 s⁻¹ and the kcat/Km was 52000 ± 4000 M⁻¹ s⁻¹.
